These results are taken from US20190133930A1, “Methods of Anesthetizing Nerve Tissue in the Trigeminal Nerve Pathway and Medical Uses Thereof” (Apollonia, LLC, priority 2014, published 2019).

Format in all cases: in vitro ADME
Series [1] in a line: MatTek EpiAirway cell monolayer permeability of local anesthetics after excipient pre-treatment. To be noted: human, pH 6, EpiAirway, 10 mM test article, donor pH 6.0, 37° C., 0.5 hr. The protocol: The EpiAirway™ cell line is derived from normal human respiratory airway cells and models the mucosal tissue in the nasal cavity's respiratory airway, the main site of drug absorption following intranasal administration.
EpiAirway™ tissues were treated with the excipients (0.5% sodium caprate, 0.5% sodium deoxycholate, 0.5% polyoxyethylene 9 lauryl ether, and 0.5% lysophosphatidylcholine) for 20 min. The excipients were then washed off the EpiAirway™ tissues. […] The receiver wells contained standard transport buffer. The fluorescent marker Lucifer Yellow and atenolol (10 μM) were also included to monitor monolayer integrity at the end of the assay. The plates were incubated at 37° C. for 30 min. An aliquot of the receiver chamber was removed for analysis.
At the end of the incubation period, the donor plate was removed from the receiver plate. The donor and receiver samples were analyzed and quantified by LC-MS/MS (propranolol used as internal LC-MS standard).
To verify the monolayer integrity, aliquots of the cell buffers were analyzed by fluorescence and LC-MS/MS to determine the transport of the impermeable dye Lucifer Yellow and atenolol, respectively.
(§1) Data are expressed as permeability (Papp): Papp=(dQ/dt)/C0A
(§2) Where dQ/dt is the rate of permeation, C0 is the initial concentration of test agent, and A is the area of the monolayer.
For mass spectroscopy method development, the signal was optimized for each compound by electrospray ionization (ESI) in positive ionization mode. An MS2 scan was used to optimize the precursor ion mass, and an SIM scan was used to optimize the fragmenter voltage. Product ion analysis was used to identify the best fragment and collision energy for analysis.
Following MRM method optimization, a test injection was performed and an ionization ranking was assigned indicating the compound's ease of ionization.
Samples were analyzed by LC/MS/MS using an Agilent 6410 mass spectrometer coupled with an Agilent 1200 HPLC and a CTC PAL chilled autosampler, all controlled by MassHunter software (Agilent). After separation on a C18 reverse phase HPLC column (Agilent Zorbax StableBond 3.5 um, 2.1×30 mm) using an acetonitrile-water gradient, peaks were analyzed by mass spectrometry using ESI ionization in MRM mode. Diclofenac was utilized as an analytical internal standard (IS).

A short description of series [2]: Caco-2 cell monolayer apical to basolateral permeability of local anesthetic after excipient pre-treatment. To be noted: human, Caco-2, pH 6, Caco-2, A→B, 10 mM Tetracaine HCl, apical pH 6.0, 0.5 hr. How it is done: (§3) A first experiment was performed to test the ability of a mucosal absorption enhancer to promote transport of a local anesthetic agent across a mucosal epithelial cell monolayer. In this experiment, the Caco-2 cell line (an intestinal mucosal cell line) was grown and maintained at a pH of 6.0 for the length of time sufficient to establish tight junctions between the cells in the monolayer. After formation of the monolayer, sodium caprate was administered to the apical side of the Caco-2 cell monolayer at a concentration depending on the given test sample. After 20 minutes, the sodium caprate was washed off of the monolayer. Tetracaine hydrochloride was then administered to the apical side of the Caco-2 cell monolayer at a concentration of 10 mM. An additional test sample including tetracaine but lacking sodium caprate was also administered to the apical side of a separate Caco-2 cell monolayer as a control. The assay duration was 30 minutes. The apical to basolateral permeability rate coefficient of tetracaine across the Caco-2 cell monolayer was determined by LC/MS/MS for each test composition. The permeability rate coefficient (Papp) was based on the percent of the drug that is transported across the epithelial monolayer as a function of time and surface area of the monolayer. Drug permeability across the Caco-2 cell monolayers is a well-known model of transmucosal drug absorption in humans.
(§4) Caco-2 cells grown in tissue culture flasks were trypsinized, suspended in medium, and the suspensions were applied to wells of a Millipore 96 well Caco-2 plate. The cells were allowed to grow and differentiate for three weeks, feeding at 2-day intervals.
(§5) The Caco-2 cells were treated with the excipient (sodium caprate) for 20 minutes at concentrations of 0.2%, 0.5%, 1.0%, and 2.0%. The excipient was then washed off of the Caco-2 cell monolayer. For Apical to Basolateral (A→B) permeability, the test agent (10 mM Tetracaine HCl) was added to the apical (A) side and amount of permeation was determined on the basolateral (B) side. The A-side buffer contained 100 μM Lucifer Yellow (LY) dye and 10 μM Atenolol, in Transport Buffer (1.98 g/L glucose in 10 mM HEPES, 1× Hank's Balanced Salt Solution without Mg2+ and Ca2+) pH 6.0 for test articles. The B-side buffer was standard Transport Buffer, pH 7.4. Caco-2 cells were incubated with these buffers for 0.5 hr, and the receiver side buffer was removed for analysis by LC/MS/MS (propranolol used as internal LC/MS standard).
(§6) To verify that the Caco-2 cell monolayers were properly formed (and remained intact during the assay), aliquots of the cell buffers were analyzed by fluorescence and LC/MS/MS to determine the transport of the impermeable dye Lucifer Yellow and atenolol, respectively. Any deviations from control values are reported.
as §1, §2
(§7) For analytical method development, the analyte signal was optimized for each compound by ESI positive or negative ionization mode. An MS2 scan or an SIM scan was used to optimize the fragmenter voltage and a product ion analysis was used to identify the best fragment for analysis, and the collision energy was optimized using a product ion or MRM scan. An ionization ranking was assigned indicating the compound's ease of ionization.
(§8) Samples were analyzed by LC/MS/MS using an Agilent 6410 mass spectrometer coupled with an Agilent 1200 HPLC and a CTC PAL chilled autosampler, all controlled by MassHunter software (Agilent). After separation on a C18 reverse phase HPLC column (Agilent Zorbax StableBond 3.5 μm, 2.1×30 mm) using an acetonitrile-water gradient system, peaks were analyzed by mass spectrometry (MS) using ESI ionization in MRM mode.
On the technique in general: Passage across Caco-2 layers is used to estimate intestinal permeability.

A further series deals with Caco-2 cell monolayer. The description is as above. To be noted: Caco-2; sodium caprate 0.2-2.0% versus no excipient; dose dependent. How it is done:
as §3, §4, §5, §6, §1, §2, §7, §8

The nature of series [3]: MatTek EpiAirway cell monolayer permeability of local anesthetics after excipient pre-treatment. To be noted: human, pH 6, EpiAirway, 10 mM test article, donor pH 6.0, 37° C., 0.5 hr; excipient: none.
Setting [4] is: 20 min pre-treatment with 0.5% Lysophosphatidylcholine.
Setting [5] is: 20 min pre-treatment with 0.5% Polyoxyethylene 9 Lauryl Ether.
[6] abbreviates: 20 min pre-treatment with 0.5% Sodium Caprate.
Setting [7] is: 20 min pre-treatment with 0.5% Sodium Deoxycholate.

Molecules are shown by their SMILES. Counter-ions that a name gives are not always drawn.

The term Papp A→B denotes how fast a substance crosses the layer from the apical side. For `CCCCNc1ccc(C(=O)OCCN(C)C)cc1` [Tetracaine, Tetracaine HCl], the Papp A→B at 30 min, 10 mM came to 71.6 ×10⁻⁶ cm/s in series [1] (setting [4]); 126 ×10⁻⁶ cm/s in series [1] (setting [5]); 56.8 ×10⁻⁶ cm/s in series [1] (setting [6]); 155 ×10⁻⁶ cm/s in series [1] (setting [7]); 10.8 ×10⁻⁶ cm/s in series [3]. Further, the Papp A→B at 0.5 hr, 10 mM in series [2] (20 min pre-treatment with 0.2% Sodium Caprate) turned out to be 32.2 ×10⁻⁶ cm/s; in series [2] (setting [6]), 55.9 ×10⁻⁶ cm/s; in series [2] (20 min pre-treatment with 1.0% Sodium Caprate) it was 54.8 ×10⁻⁶ cm/s; in series [2] (20 min pre-treatment with 2.0% Sodium Caprate) it was 139 ×10⁻⁶ cm/s; in series [2] (excipient: None) it was 17.7 ×10⁻⁶ cm/s. Also, in the series with Caco-2 cell monolayer, the “effect of sodium caprate on permeability across a mucosal epithelial cell monolayer” value is on record as “significantly improved the permeability”.
For `CCCCN1CCCCC1C(=O)Nc1c(C)cccc1C` (stereo not shown) [Bupivacaine, Bupivacaine HCl], the Papp A→B at 30 min, 10 mM came out at 173 ×10⁻⁶ cm/s in series [1] (setting [4]); 189 ×10⁻⁶ cm/s in series [1] (setting [5]); 116 ×10⁻⁶ cm/s in series [1] (setting [6]); 218 ×10⁻⁶ cm/s in series [1] (setting [7]); 19.2 ×10⁻⁶ cm/s in series [3].
